Assay results from PMC11124341, “4-Hydroxybenzoic Acid-Based Hydrazide–Hydrazones as Potent Growth Inhibition Agents of Laccase-Producing Phytopathogenic Fungi That Are Useful in the Protection of Oilseed Crops” (Molecules, 2024).
In brackets after ≈: the same amount, converted by molar mass.

Key:
Assay in all cases: In vitro antifungal activity, mycelial growth inhibition on PDA medium
Assay type in all cases: cell-based
[1] = system: Botrytis cinerea strain FBc05; conditions: for fungal growth inhibition, B. cinerea / inhibition of growth at 50 µg/mL: screening at basal 50 µg/mL, PDA medium, mean ± SD of three determinations; for inhibition at 6.25 µg/mL / inhibition at 25 µg/mL / inhibition at 50 µg/mL / IC50 / inhibition of growth at 50 µg/mL: Botrytis cinerea, FBC05; for inhibition at 6.25 µg/mL / inhibition at 25 µg/mL / inhibition at 50 µg/mL: fungicidal profile, read-out: B. cinerea inhibition; for IC50: log-logistic model, 0–50 µg/mL range, read-out: IC50 against Botrytis cinerea (Bc); for inhibition of growth at 50 µg/mL: read-out: fungal growth inhibition, B. cinerea
[2] = system: Cerrena unicolor strain no. 139; conditions: for inhibition of growth at 50 µg/mL / inhibition at 50 µg/mL / IC50: Cerrena unicolor, NO.139; for inhibition of growth at 50 µg/mL: read-out: fungal growth inhibition, C. unicolor; for inhibition at 50 µg/mL: fungicidal profile, read-out: C. unicolor inhibition; for IC50: log-logistic model, 0–50 µg/mL range, read-out: IC50 against Cerrena unicolor (Cu)
Procedure, shortened: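 Compounds in PDA plates (ethanol or DMSO co-solvent, 0.1–1.0% v/v), screened at 50 µg/mL, selected ones at 0–50 µg/mL; 5 mm mycelial plug placed centrally, 22 °C dark until co-solvent control covered (3 d B. cinerea, S. sclerotiorum; 7 d C. unicolor). IC50 from nonlinear dose–response fit, only where growth fell >50%.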

[3] = system: Sclerotinia sclerotiorum strain FSc10; conditions: for inhibition of growth at 50 µg/mL / fungal growth inhibition, S. sclerotiorum: screening at basal 50 µg/mL, PDA medium, mean ± SD of three determinations; for inhibition of growth at 50 µg/mL: read-out: fungal growth inhibition, S. sclerotiorum; for IC50: log-logistic model, 0–50 µg/mL range, read-out: IC50 against Sclerotinia sclerotiorum (Ss)
[4] = screening at basal 50 µg/mL, PDA medium, mean ± SD of three determinations
[5] = Sclerotinia sclerotiorum, FSC10
[6] = Sclerotinia sclerotiorum, FSC10, fungicidal profile, read-out: S. sclerotiorum inhibition

SMILES | fungal growth inhibition, B. cinerea [1] | inhibition of growth at 50 µg/mL [2, 4] | inhibition of growth at 50 µg/mL [3, 5] | inhibition at 6.25 µg/mL [1] | inhibition at 25 µg/mL [1] | inhibition at 50 µg/mL [1] | IC50 [1] | inhibition of growth at 50 µg/mL [1] | inhibition at 50 µg/mL [2] | IC50 [2] | inhibition at 6.25 µg/mL [3, 6] | inhibition at 12.5 µg/mL [3, 6] | IC50 [3, 5] | fungal growth inhibition, S. sclerotiorum [3] | fungal growth inhibition, C. unicolor [2, 4] | inhibition at 50 µg/mL ([3]; Sclerotinia sclerotiorum, FSC10, fungicidal profile, 50 µg/mL, read-out: S. sclerotiorum inhibition)
COc1cc(/C=N/NC(=O)c2ccc(O)cc2)ccc1O [compound 17] | n.o. | 11.9 ± 0.8% | 7.3 ± 2.1% | – | – | – | – | – | – | – | – | – | – | – | – | –
CC(C)(C)c1cccc(/C=N/NC(=O)c2ccc(O)cc2)c1O [compound 18] | – | 85.9 ± 2.1% | 97.1 ± 1.1% | 20.2% | 56.4% | 64.7% | 20 µg/mL (≈ 64 µM) | 82.1 ± 3.1% | 76.5% | 18.3 µg/mL (≈ 58.6 µM) | 70.6 to 87.6% | 96.3% | 1.8 µg/mL (≈ 5.76 µM) | – | – | –
Cc1cc(/C=N/NC(=O)c2ccc(O)cc2)c(O)c(CO)c1 [compound 25] | – | 70.1 ± 1.8% | – | – | – | – | – | 2.8 ± 1.9% | – | – | – | – | – | n.o. | – | –
O=C(N/N=C/c1cccc(-c2ccccc2)c1O)c1ccc(O)cc1 [compound 19] | – | 71.4 ± 2.1% | 50.6 ± 5.5% | 30.1% | 70.1% | 74.1% | 13.9 µg/mL (≈ 41.8 µM) | 73.5 ± 3.3% | 70.5% | 20.3 µg/mL (≈ 61.1 µM) | – | – | 69.9 µg/mL (≈ 210 µM) | – | – | –
O=C(N/N=C/c1cc(O)ccc1O)c1ccc(O)cc1 [compound 13] | n.o. | – | – | – | – | – | – | – | – | – | – | – | – | n.o. | n.o. | –
Cc1cc(/C=N/NC(=O)c2ccc(O)cc2)c(O)c(C(C)(C)C)c1 [compound 30] | – | 89.8 ± 0.4% | 96.8 ± 2.2% | – | – | – | 62.5 µg/mL (≈ 191 µM) | 76.2 ± 2.2% | 90.5% | 13.5 µg/mL (≈ 41.4 µM) | 70.6 to 87.6% | 98.7% | 0.8 µg/mL (≈ 2.45 µM) | – | – | –
CC(C)(C)c1cc(/C=N/NC(=O)c2ccc(O)cc2)c(O)c(C(C)(C)C)c1 [compound 27] | – | 42.8 ± 2.2% | 85.5 ± 3.2% | – | – | – | – | 23.4 ± 2.7% | – | 2190 µg/mL (≈ 5950 µM) | 82.9% | – | 0.5 µg/mL (≈ 1.36 µM) | – | – | 93.1%
